From patent publication US20260022143A1, “Cyclic Peptide Inhibitors of IL-23” (JANSSEN PHARMACEUTICA NV, priority 2022, published 2026)
Positions of bridges follow the written chain, without caps; N, C: chain ends. Non-standard residues stand in square brackets, D forms with d. Residues, ends and D or L forms follow the SMILES beside them. *: point of attachment. Me3N+(CH2)2O(CH2)2O(CH2)2CO = C[N+](C)(C)CCOCCOCCC(=O)*; Trp(7-Me) = Cc1cccc2c(C[C@H](N)C(=O)O)c[nH]c12; 2Nal = N[C@@H](Cc1ccc2ccccc2c1)C(=O)O; 3Pal = N[C@@H](Cc1cccnc1)C(=O)O; Lys(Me) = CNCCCC[C@H](N)C(=O)O; Pen = CC(C)(S)[C@H](N)C(=O)O; Thp = NC1(C(=O)O)CCOCC1; X3 = C[N+](C)(C)CCCCC*; Sar = CNCC(=O)O

How the values were obtained:
IL-23R = biological target: T1, IL-23R (Homo sapiens, UniProt Q5VWK5); experiment: IL23R Reporter Assay; assay type: cell-based; details: HEK293 cells containing IL-23R, IL-12RP1 and STAT-inducible firefly luciferase reporter; 10 ng/mL IL-23 (EC90); 5 h at 37° C.; read-out: IL23R Reporter Assay
T1 construct: host or cells: HEK293
T1 sequence (Q5VWK5 24-629): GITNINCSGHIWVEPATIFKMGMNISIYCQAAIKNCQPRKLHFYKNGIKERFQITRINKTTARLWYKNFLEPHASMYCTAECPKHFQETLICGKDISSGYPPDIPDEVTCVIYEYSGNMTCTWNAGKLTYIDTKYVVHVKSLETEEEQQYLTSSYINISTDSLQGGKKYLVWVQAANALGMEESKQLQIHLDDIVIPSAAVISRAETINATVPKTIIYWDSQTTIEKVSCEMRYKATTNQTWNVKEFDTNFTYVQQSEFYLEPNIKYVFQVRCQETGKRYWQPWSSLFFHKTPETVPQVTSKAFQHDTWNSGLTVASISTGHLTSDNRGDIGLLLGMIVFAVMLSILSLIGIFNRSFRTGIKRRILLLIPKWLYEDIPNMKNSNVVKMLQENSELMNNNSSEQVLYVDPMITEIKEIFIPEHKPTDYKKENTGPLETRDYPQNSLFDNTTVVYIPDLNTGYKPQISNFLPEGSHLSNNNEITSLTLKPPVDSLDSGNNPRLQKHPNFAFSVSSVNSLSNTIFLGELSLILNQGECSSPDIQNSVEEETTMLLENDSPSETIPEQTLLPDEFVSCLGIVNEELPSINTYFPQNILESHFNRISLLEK

[1] = Exposed Polar Surface Area (EPSA); assay type: physicochemical; details: SFC on Chirex 3014 column; sample 1 mM DMSO stock; read-out: EPSA
Summary of the method: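 SFC retention on a Chirex 3014 (S)-valine/(R)-1-(α-naphthyl)ethylamine column, 35 °C, CO2 with MeOH (20 mM ammonium formate) gradient 5–60% at 20%/min, 14 MPa outlet. Retention times converted to EPSA (Å^2) via linear calibration with 8 standards; samples from 1 mM DMSO stock, run in duplicate.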

| SMILES | IC50 (IL-23R) [nM] | EPSA [1] [A^2] |
| --- | --- | --- |
| CC(=O)N(C)CCCC[C@@H]1NC(=O)[C@H](Cc2c[nH]c3c(C)cccc23)NC(=O)[C@H](C)NC(=O)[C@H](CC(=O)N(C)C)NC(=O)[C@@H](NC(=O)CCOCCOCC[N+](C)(C)C)C(C)(C)SSC(C)(C)[C@@H](C(=O)N[C@@H](Cc2ccc(OCCCCC[N+](C)(C)C)cc2)C(=O)N[C@@H](Cc2ccc3ccccc3c2)C(=O)NC2(C(=O)N[C@@H](CCCCN(C)C(C)=O)C(=O)N[C@@H](CC(N)=O)C(=O)N[C@@H](Cc3cccnc3)C(=O)N(C)CC(=O)N(C)C)CCOCC2)NC1=O [compound 494, cPEG3aCO-Pen(3)-N(N(Me)2)-A-7MeW-K(NMeAc)-Pen(3)-TMAPF-2Nal-THP-K(NMeAc)-N-3Pya-Sar-CON(Me)2] ({Me3N+(CH2)2O(CH2)2O(CH2)2CO}-[Pen]D(NMe2)A[Trp(7-Me)][Lys(Me)](Ac)[Pen]Y(X3)[2Nal][Thp][Lys(Me)](Ac)N[3Pal][Sar]-NMe2; disulfide 1-6) | 12 | 133 |
| CC(=O)N(C)CCCC[C@@H]1NC(=O)[C@H](Cc2c[nH]c3c(C)cccc23)NC(=O)[C@H]([C@@H](C)O)NC(=O)[C@H](CC(=O)N(C)C)NC(=O)[C@@H](NC(=O)CCOCCOCC[N+](C)(C)C)C(C)(C)SSC(C)(C)[C@@H](C(=O)N[C@@H](Cc2ccc(OCCCCC[N+](C)(C)C)cc2)C(=O)N[C@@H](Cc2c[nH]c3ccccc23)C(=O)NC2(C(=O)N[C@@H](CCCCN(C)C(C)=O)C(=O)N[C@@H](CC(N)=O)C(=O)N[C@@H](Cc3cccnc3)C(=O)N(C)CC(=O)N(C)C)CCOCC2)NC1=O [compound 497, cPEG3aCO-Pen(3)-N(N(Me)2)-T-7MeW-K(NMeAc)-Pen(3)-TMApF-W-THP-K(NMeAc)-N-3Pya-Sar-CON(Me)2] ({Me3N+(CH2)2O(CH2)2O(CH2)2CO}-[Pen]D(NMe2)T[Trp(7-Me)][Lys(Me)](Ac)[Pen]Y(X3)W[Thp][Lys(Me)](Ac)N[3Pal][Sar]-NMe2; disulfide 1-6) | 80 | 162 |
| CC(=O)N(C)CCCC[C@@H]1NC(=O)[C@H](Cc2c[nH]c3c(C)cccc23)NC(=O)[C@H]([C@@H](C)O)NC(=O)[C@H](CC(=O)N(C)C)NC(=O)[C@@H](NC(=O)CCOCCOCC[N+](C)(C)C)C(C)(C)SSC(C)(C)[C@@H](C(=O)N[C@@H](Cc2ccc(OCCCCC[N+](C)(C)C)cc2)C(=O)N[C@@H](C)C(=O)NC2(C(=O)N[C@@H](CCCCN(C)C(C)=O)C(=O)N[C@@H](CC(N)=O)C(=O)N[C@@H](Cc3cccnc3)C(=O)N(C)CC(=O)N(C)C)CCOCC2)NC1=O [compound 500, cPEG3aCO-Pen(3)-N(N(Me)2)-T-7MeW-K(NMeAc)-Pen(3)-TMApF-A-THP-K(NMeAc)-N-3Pya-Sar-CON(Me)2] ({Me3N+(CH2)2O(CH2)2O(CH2)2CO}-[Pen]D(NMe2)T[Trp(7-Me)][Lys(Me)](Ac)[Pen]Y(X3)A[Thp][Lys(Me)](Ac)N[3Pal][Sar]-NMe2; disulfide 1-6) | > 1190 | 159 |
| CC(=O)NCCCC[C@@H]1NC(=O)[C@H](Cc2c[nH]c3c(-c4cccc(NC(C)=O)c4)cccc23)NC(=O)[C@H]([C@@H](C)O)NC(=O)[C@H](CC(N)=O)NC(=O)[C@@H](NC(=O)CCOCCOCC[N+](C)(C)C)C(C)(C)SSC(C)(C)[C@@H](C(=O)N[C@@H](Cc2ccc(OCCCCC[N+](C)(C)C)cc2)C(=O)N[C@@H](Cc2ccc3ccccc3c2)C(=O)NC2(C(=O)N[C@@H](CCCCN(C)C(C)=O)C(=O)N[C@@H](CC(N)=O)C(=O)N[C@@H](Cc3cncc(C)c3)C(=O)N(C)CC(N)=O)CCOCC2)NC1=O [compound 501, cPEG3aCO-Pen(3)-N-T-7(3NAcPh)W-K(Ac)-Pen(3)-TMAPF-2Nal-THP-K(NMeAc)-N-5MePyridinAla-Sar-CONH2] | 4.6 | 175 |

Results, then the compound that gave them:

| IC50 (IL-23R) [nM] | EPSA [1] [A^2] | SMILES |
| --- | --- | --- |
| 6 | 161 | CC(=O)N(C)CCCC[C@@H]1NC(=O)[C@H](Cc2c[nH]c3c(C)cccc23)NC(=O)[C@H]([C@@H](C)O)NC(=O)[C@H](C)NC(=O)[C@@H](NC(=O)CCOCCOCC[N+](C)(C)C)C(C)(C)SSC(C)(C)[C@@H](C(=O)N[C@@H](Cc2ccc(OCCCCC[N+](C)(C)C)cc2)C(=O)N[C@@H](Cc2ccc3ccccc3c2)C(=O)NC2(C(=O)N[C@@H](CCCCN(C)C(C)=O)C(=O)N[C@@H](CC(N)=O)C(=O)N[C@@H](Cc3cccnc3)C(=O)N(C)CC(=O)N(C)C)CCOCC2)NC1=O [compound 496, cPEG3aCO-Pen(3)-a-T-7MeW-K(NMeAc)-Pen(3)-TMAPF-2Nal-THP-K(NMeAc)-N-3Pya-Sar-CON(Me)2] ({Me3N+(CH2)2O(CH2)2O(CH2)2CO}-[Pen]AT[Trp(7-Me)][Lys(Me)](Ac)[Pen]Y(X3)[2Nal][Thp][Lys(Me)](Ac)N[3Pal][Sar]-NMe2; disulfide 1-6) |
| 27 | 162 | CC(=O)N(C)CCCC[C@@H]1NC(=O)[C@H](Cc2c[nH]c3c(C)cccc23)NC(=O)[C@H]([C@@H](C)O)NC(=O)[C@H](CC(=O)N(C)C)NC(=O)[C@@H](NC(=O)CCOCCOCC[N+](C)(C)C)C(C)(C)SSC(C)(C)[C@@H](C(=O)N[C@@H](Cc2ccc(OCCCCC[N+](C)(C)C)cc2)C(=O)N[C@@H](Cc2ccccc2)C(=O)NC2(C(=O)N[C@@H](CCCCN(C)C(C)=O)C(=O)N[C@@H](CC(N)=O)C(=O)N[C@@H](Cc3cccnc3)C(=O)N(C)CC(=O)N(C)C)CCOCC2)NC1=O [compound 498, cPEG3aCO-Pen(3)-N(N(Me)2)-T-7MeW-K(NMeAc)-Pen(3)-TMApF-F-THP-K(NMeAc)-N-3Pya-Sar-CON(Me)2] ({Me3N+(CH2)2O(CH2)2O(CH2)2CO}-[Pen]D(NMe2)T[Trp(7-Me)][Lys(Me)](Ac)[Pen]Y(X3)F[Thp][Lys(Me)](Ac)N[3Pal][Sar]-NMe2; disulfide 1-6) |
| > 1630 | 133 | CC(=O)N(C)CCCC[C@@H]1NC(=O)[C@H](Cc2c[nH]c3c(C)cccc23)NC(=O)[C@H]([C@@H](C)O)NC(=O)[C@H](CC(=O)N(C)C)NC(=O)[C@@H](NC(=O)CCOCCOCC[N+](C)(C)C)C(C)(C)SSC(C)(C)[C@@H](C(=O)N[C@@H](Cc2ccc(OCCCCC[N+](C)(C)C)cc2)C(=O)N[C@@H](CC(C)C)C(=O)NC2(C(=O)N[C@@H](CCCCN(C)C(C)=O)C(=O)N[C@@H](CC(N)=O)C(=O)N[C@@H](Cc3cccnc3)C(=O)N(C)CC(=O)N(C)C)CCOCC2)NC1=O [compound 499, cPEG3aCO-Pen(3)-N(N(Me)2)-T-7MeW-K(NMeAc)-Pen(3)-TMApF-L-THP-K(NMeAc)-N-3Pya-Sar-CON(Me)2] ({Me3N+(CH2)2O(CH2)2O(CH2)2CO}-[Pen]D(NMe2)T[Trp(7-Me)][Lys(Me)](Ac)[Pen]Y(X3)L[Thp][Lys(Me)](Ac)N[3Pal][Sar]-NMe2; disulfide 1-6) |
| 3.8 | 169 | CC(=O)NCCCC[C@@H]1NC(=O)[C@H](Cc2c[nH]c3c(-c4cccc(NC(C)=O)c4)cccc23)NC(=O)[C@H]([C@@H](C)O)NC(=O)[C@H](CC(N)=O)NC(=O)[C@@H](NC(C)=O)C(C)(C)SSC(C)(C)[C@@H](C(=O)N[C@@H](Cc2ccc(OCCCCC[N+](C)(C)C)cc2)C(=O)N[C@@H](Cc2ccc3ccccc3c2)C(=O)NC2(C(=O)N[C@@H](CCCCN(C)C(C)=O)C(=O)N[C@@H](CC(N)=O)C(=O)N[C@@H](Cc3cncc(C)c3)C(=O)N(C)CC(N)=O)CCOCC2)NC1=O [compound 502, MeCO-Pen(3)-N-T-7(3NAcPh)W-K(Ac)-Pen(3)-TMAPF-2Nal-THP-K(NMeAc)-N-5MePyridinAla-Sar-CONH2] |
